Reference: a compilation of properties of binary mixtures (doi:10.1021/acs.jced.9b01103)

Assay: xn = mol fraction of the nth substance listed
Settings: 96.7 kPa

CS(C)=O + CC(=O)[O-].CCCC[n+]1ccn(C)c1
x2 = 0
Settings	viscosity [mPa·s]
303.15 K	1.8
308.15 K	1.665
313.15 K	1.529
318.15 K	1.407
323.15 K	1.304
328.15 K	1.211
333.15 K	1.127
343.15 K	0.989
348.15 K	0.931

CC(=O)[O-].CCCC[n+]1ccn(C)c1 + CS(C)=O
viscosity [mPa·s]
Settings	303.15 K	308.15 K	313.15 K	318.15 K	323.15 K	328.15 K	333.15 K	338.15 K	343.15 K	348.15 K
x1 = 0.21	6.44	–	4.98	–	3.81	3.39	3.08	2.77	–	2.3
x1 = 0.285	9.15	7.85	6.63	5.91	–	–	–	3.69	3.3	3.01
x1 = 0.369	13.34	11.31	9.67	8.25	7.12	6.3	5.48	4.89	–	3.97
x1 = 0.478	22.7	18	14.83	12.54	10.64	9.15	7.97	6.92	6.06	5.44
x1 = 0.606	51.5	39.2	30.3	–	19.2	–	12.9	10.5	8.81	7.34
x1 = 0.789	98.8	74.1	56.1	42.7	33.2	26.7	21.7	–	15.07	12.69
x1 = 0.884	131.1	96.5	75.2	–	47.5	39	32.8	28.1	–	–
x1 = 1	253	180.6	133.1	102	79.4	62.1	50.2	40.7	–	28.4
